# From paper PMC5041986 (Oncotarget, 2016)
# Where two headings read alike, the source gives them in different places.
# Legend:
# RT-112 cells [1] = experiment: Flow cytometric cell cycle analysis; assay type: cell-based; conditions: flow cytometry; for G0/G1 cell cycle arrest: 4 μM, 24 h; for accumulation of the sub-G1 phase (apoptotic cell death): 48 h to 72 h
# Description: Cells were seeded in 6-well plates and treated with DMSO or indicated compounds at various concentrations for the indicated times. After treatment, the cells were harvested by trypsinization, washed with PBS, and the pellets were fixed in ice-cold 70% ethanol at -20°C overnight. After centrifugation, the cells were incubated for 15 minutes at room temperature in 0.1 mL of phosphate-citric acid buffer (0.2 M NaHPO4, 0.1 M citric acid, and pH 7.8) and then stained with propidium iodide staining buffer containing Triton X-100 (0.1%, v/v), RNase A (100 μg/mL), and propidium iodide (80 μg/mL) for 30 minutes in the dark. DNA contents were analyzed by flow cytometry with CellQuest software (Becton Dickinson, Mountain View, CA, USA). The results were obtained from three independent experiments and the representative data were shown in Supplementary Figure S8 and S9.
# HUVEC = experiment: MTT cell viability assay; assay type: cell-based; conditions: Homo sapiens, HUVEC (normal cell), 72 h
# Description: (§3) Cells were seeded in 96-well plates and exposed to DMSO, or indicated compounds for 72 hours. Cell viability was assessed using the 3-(4,5-dimethylthiazol-2-yl)-2,5-diphenyltetrazolium bromide (MTT) assay as described previously [46]. Briefly, 100 μl of 0.5 mg/ml MTT were added to each well and incubated at 37°C for 1 hour. After that, 100 μl of extraction reagents (0.1 M sodium acetate buffer for suspension cells or DMSO for attached cells) were added to each well to lyse cells and absorbance at 550 nm was measured. Cell viability was expressed as the percentage of surviving cells in drug-treated versus DMSO-treated control cells (which was considered as 100% viability).
# PLC/PRF/5 cells = experiment: MTT cell viability assay; assay type: cell-based; conditions: 72 h; for Viability (% of control cells) PLC5/PRF/5 (5 μM): mean
# Description: as §3
# Hep3B cells = experiment: MTT cell viability assay; assay type: cell-based; conditions: 72 h, mean
# Description: as §3
# RT-112 cells [2] = experiment: MTT cell viability assay; assay type: cell-based; conditions: 72 h; for Viability (% of control cells) RT-112 (5 μM) / Viability (% of control cells) RT-112 (10 μM): mean
# Description: as §3
# SNU-16 cells = experiment: MTT cell viability assay; assay type: cell-based; conditions: 72 h; for Viability (% of control cells) SNU-16 (5 μM): mean
# Description: as §3
# [3] = system: LC3B-I to LC3B-II conversion in RT-112 cells; experiment: Western blot of autophagy marker LC3B; assay type: cell-based
# Description: (§1) Cells were seeded and treated with indicated compounds at various concentrations for the indicated times. After treatment, cells were harvested by scraping with RIPA buffer containing protease inhibitors and phosphatase inhibitors (Roche Diagnostics Corp., Indianapolis, IN, USA). Total cell lysates were centrifuged at 13,000 g for 30 min and equal amounts of protein were separated by SDS–PAGE and immunoblotted with specific antibodies as previous described. The cells were allowed to recover for 24 h before following treatment. The small interfering RNA (siRNA) for Atg5 (HSS114103, HSS114104, HSS190366), and negative control (siCTL) were purchased from Invitrogen (Carlsbad, CA, USA). Transient transfection was performed by using lipofectamine 2000 according to the manufacture's instructions.
# RT-112 tumor xenografts = experiment: RT-112 xenograft model; assay type: in vivo; conditions: for tumor growth inhibition (% TGI): ip, qd, nude mice
# Description: Tumors were measured weekly using calipers. Tumor volume (mm^3) was calculated from w^2×l/2 (w = width, l= length in mm of the tumor).
# MDA-MB-231 cells = experiment: MTT cell viability assay; assay type: cell-based; conditions: Homo sapiens, MDA-MB-231 (breast), 72 h
# Description: as §3
# Erbb2 = molecular target: T1, Erbb2 (Homo sapiens, UniProt P04626); experiment: KINOMEscan competition-binding assay
# T1 construct: purchased DiscoverRx (KINOMEscan service)
# T1 sequence (P04626 23-1255): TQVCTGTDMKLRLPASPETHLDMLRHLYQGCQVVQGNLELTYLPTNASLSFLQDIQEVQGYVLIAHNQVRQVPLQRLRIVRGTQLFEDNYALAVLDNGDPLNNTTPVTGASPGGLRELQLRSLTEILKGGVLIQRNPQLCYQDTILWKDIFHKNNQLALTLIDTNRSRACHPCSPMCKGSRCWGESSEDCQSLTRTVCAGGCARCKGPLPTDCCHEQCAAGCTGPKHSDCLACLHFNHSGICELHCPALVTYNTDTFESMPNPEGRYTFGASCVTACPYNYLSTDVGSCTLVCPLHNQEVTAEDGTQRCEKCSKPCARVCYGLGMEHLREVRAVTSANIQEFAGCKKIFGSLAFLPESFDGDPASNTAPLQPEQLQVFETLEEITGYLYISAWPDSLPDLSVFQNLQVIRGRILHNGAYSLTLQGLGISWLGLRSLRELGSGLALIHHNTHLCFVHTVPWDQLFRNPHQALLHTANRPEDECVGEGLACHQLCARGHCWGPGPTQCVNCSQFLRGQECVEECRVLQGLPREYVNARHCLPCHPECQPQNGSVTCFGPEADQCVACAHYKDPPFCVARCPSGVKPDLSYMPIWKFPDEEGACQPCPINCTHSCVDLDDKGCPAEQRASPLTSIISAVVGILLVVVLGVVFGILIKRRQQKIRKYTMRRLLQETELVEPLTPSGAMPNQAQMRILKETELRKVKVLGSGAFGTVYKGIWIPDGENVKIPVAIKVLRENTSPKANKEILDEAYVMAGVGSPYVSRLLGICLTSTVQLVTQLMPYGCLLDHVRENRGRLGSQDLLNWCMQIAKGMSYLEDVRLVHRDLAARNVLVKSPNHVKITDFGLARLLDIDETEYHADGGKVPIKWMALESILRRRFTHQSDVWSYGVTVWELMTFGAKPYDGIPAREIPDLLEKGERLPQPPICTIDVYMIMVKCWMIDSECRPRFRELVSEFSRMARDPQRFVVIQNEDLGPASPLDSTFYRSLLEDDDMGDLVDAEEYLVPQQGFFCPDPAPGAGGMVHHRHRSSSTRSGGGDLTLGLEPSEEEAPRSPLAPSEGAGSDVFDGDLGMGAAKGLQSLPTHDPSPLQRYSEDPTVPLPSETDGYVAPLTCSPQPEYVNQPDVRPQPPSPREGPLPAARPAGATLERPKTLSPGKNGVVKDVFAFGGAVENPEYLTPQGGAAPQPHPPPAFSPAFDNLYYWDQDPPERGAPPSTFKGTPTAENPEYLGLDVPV
# Description: (§2) The screening is based on a competition-binding assay and the K d values were determined as described previously.
# PDGFRB = molecular target: T2, PDGFRB (Homo sapiens, UniProt P09619); experiment: KINOMEscan competition-binding assay
# T2 construct: purchased DiscoverRx (KINOMEscan service)
# T2 sequence (P09619 33-1106): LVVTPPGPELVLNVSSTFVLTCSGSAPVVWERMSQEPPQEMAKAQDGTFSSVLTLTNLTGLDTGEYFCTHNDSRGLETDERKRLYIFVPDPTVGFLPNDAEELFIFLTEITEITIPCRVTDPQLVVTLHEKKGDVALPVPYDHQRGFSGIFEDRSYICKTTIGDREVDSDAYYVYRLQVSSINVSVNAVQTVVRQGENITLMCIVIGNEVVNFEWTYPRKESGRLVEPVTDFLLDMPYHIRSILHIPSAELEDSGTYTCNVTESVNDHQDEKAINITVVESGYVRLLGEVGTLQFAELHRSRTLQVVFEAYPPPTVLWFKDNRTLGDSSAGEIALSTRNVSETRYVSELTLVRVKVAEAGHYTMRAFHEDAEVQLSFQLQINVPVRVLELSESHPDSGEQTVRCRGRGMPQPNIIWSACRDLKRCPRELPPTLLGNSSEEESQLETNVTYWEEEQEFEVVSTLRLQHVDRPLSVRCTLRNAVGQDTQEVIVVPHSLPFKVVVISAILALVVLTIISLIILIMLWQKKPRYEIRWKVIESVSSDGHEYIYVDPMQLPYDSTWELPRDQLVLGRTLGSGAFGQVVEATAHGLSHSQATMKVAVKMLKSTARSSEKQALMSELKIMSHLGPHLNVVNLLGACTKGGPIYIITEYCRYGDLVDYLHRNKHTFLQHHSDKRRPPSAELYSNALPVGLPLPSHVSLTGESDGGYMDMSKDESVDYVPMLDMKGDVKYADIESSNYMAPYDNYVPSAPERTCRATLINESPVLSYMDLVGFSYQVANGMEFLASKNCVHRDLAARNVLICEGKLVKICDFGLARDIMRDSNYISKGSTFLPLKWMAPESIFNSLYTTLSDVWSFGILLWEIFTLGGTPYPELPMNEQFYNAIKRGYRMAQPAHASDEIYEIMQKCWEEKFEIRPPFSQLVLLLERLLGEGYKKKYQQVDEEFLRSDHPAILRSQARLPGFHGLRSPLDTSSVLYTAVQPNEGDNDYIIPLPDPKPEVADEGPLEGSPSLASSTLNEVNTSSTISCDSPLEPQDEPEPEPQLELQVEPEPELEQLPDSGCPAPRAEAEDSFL
# Description: as §2
# FLT3 = molecular target: T3, FLT3 (Homo sapiens, UniProt P36888); experiment: KINOMEscan competition-binding assay
# T3 construct: purchased DiscoverRx (KINOMEscan service)
# Description: as §2
# FGFR4 = molecular target: T4, FGFR4 (Homo sapiens, UniProt P22455); experiment: KINOMEscan competition-binding assay
# T4 construct: purchased DiscoverRx (KINOMEscan service)
# Description: as §2
# CSF1R = molecular target: T5, CSF1R (Homo sapiens, UniProt P07333); experiment: KINOMEscan competition-binding assay
# T5 construct: purchased DiscoverRx (KINOMEscan service)
# T5 sequence (P07333 20-972): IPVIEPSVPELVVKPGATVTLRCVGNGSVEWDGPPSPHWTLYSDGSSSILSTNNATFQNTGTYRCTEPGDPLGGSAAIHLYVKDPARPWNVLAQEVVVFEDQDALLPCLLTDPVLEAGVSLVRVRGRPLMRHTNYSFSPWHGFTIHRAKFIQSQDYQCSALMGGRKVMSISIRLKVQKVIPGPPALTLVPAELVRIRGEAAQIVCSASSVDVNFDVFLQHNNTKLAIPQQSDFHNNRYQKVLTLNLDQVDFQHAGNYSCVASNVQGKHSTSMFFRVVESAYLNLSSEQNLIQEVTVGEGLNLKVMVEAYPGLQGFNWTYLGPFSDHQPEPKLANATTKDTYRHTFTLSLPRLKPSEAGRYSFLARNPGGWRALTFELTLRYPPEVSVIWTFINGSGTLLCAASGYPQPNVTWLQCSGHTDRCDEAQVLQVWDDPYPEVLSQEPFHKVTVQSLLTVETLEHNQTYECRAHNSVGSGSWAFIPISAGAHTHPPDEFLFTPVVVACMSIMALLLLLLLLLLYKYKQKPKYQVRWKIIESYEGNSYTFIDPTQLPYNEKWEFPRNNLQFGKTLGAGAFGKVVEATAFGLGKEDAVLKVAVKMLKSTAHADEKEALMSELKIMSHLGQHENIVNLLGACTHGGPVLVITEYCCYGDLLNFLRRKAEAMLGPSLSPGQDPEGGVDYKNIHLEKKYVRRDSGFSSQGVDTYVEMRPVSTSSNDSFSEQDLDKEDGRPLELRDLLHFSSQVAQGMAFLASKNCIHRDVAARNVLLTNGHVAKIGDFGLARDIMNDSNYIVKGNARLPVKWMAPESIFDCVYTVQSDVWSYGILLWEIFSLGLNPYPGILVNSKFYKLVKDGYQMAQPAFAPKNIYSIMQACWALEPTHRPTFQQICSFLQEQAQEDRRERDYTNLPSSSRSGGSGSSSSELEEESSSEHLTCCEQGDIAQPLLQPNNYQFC
# Description: as §2
# TYK2 = molecular target: T6, TYK2 (Homo sapiens, UniProt P29597); experiment: KINOMEscan competition-binding assay
# T6 construct: purchased DiscoverRx (KINOMEscan service)
# T6 sequence (P29597 whole entry): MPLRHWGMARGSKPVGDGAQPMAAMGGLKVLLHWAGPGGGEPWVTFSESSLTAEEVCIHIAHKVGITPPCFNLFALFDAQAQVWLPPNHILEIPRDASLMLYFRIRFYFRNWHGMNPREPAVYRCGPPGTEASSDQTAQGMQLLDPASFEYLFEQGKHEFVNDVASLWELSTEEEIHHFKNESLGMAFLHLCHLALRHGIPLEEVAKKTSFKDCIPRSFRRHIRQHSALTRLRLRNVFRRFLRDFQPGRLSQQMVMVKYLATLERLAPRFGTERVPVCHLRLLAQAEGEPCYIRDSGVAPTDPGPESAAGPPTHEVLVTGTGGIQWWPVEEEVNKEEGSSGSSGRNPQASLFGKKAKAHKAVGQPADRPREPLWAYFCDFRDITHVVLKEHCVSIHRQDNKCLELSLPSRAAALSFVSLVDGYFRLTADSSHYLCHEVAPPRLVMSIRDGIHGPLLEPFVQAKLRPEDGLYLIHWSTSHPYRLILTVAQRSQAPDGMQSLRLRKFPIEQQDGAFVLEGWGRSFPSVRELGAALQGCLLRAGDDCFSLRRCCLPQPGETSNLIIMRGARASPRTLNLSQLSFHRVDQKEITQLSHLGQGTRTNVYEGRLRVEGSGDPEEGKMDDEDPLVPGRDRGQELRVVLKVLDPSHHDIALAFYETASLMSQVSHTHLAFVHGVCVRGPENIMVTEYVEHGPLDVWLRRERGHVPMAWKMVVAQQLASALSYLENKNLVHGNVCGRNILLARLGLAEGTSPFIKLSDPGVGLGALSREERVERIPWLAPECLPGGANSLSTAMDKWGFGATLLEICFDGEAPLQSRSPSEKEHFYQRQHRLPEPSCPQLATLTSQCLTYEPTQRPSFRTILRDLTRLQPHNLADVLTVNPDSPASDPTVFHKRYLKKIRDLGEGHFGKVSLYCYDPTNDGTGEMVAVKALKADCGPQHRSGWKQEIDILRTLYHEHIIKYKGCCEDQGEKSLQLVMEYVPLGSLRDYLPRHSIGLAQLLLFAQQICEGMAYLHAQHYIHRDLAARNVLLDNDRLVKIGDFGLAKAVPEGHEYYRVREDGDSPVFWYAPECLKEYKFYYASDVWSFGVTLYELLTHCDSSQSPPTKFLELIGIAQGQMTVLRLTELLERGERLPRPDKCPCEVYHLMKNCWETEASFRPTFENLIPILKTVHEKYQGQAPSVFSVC
# Description: as §2
# FGFR3 = molecular target: T7, FGFR3 (Homo sapiens, UniProt P22607); experiment: KINOMEscan competition-binding assay
# T7 construct: purchased DiscoverRx (KINOMEscan service)
# Description: as §2
# FGFR2 = molecular target: T8, FGFR2 (Homo sapiens, UniProt P21802); experiment: KINOMEscan competition-binding assay
# T8 construct: purchased DiscoverRx (KINOMEscan service)
# Description: as §2
# FGFR1 = molecular target: T9, FGFR1 (Homo sapiens, UniProt P11362); experiment: KINOMEscan competition-binding assay
# T9 construct: purchased DiscoverRx (KINOMEscan service)
# Description: as §2
# VEGFR2 = molecular target: T10, VEGFR2 (Homo sapiens, UniProt P35968); experiment: KINOMEscan competition-binding assay
# T10 construct: purchased DiscoverRx (KINOMEscan service)
# Description: as §2
# HCT-116 cells = experiment: MTT cell viability assay; assay type: cell-based; conditions: Homo sapiens, HCT-116 (colorectal), 72 h
# Description: as §3
# [4] = system: FGFR-dependent versus FGFR-independent cells; experiment: MTT cell viability assay, mean over cell line panel; assay type: cell-based
# [5] = system: phosphorylation of FGFR1, FGFR3, FRS2, ERK and AKT in RT-112 cells; experiment: Western blot of FGFR signaling; assay type: cell-based
# Description: as §1
# RT-112 cells [6] = experiment: SA-β-galactosidase staining (senescence); assay type: cell-based
# Description: Cells were seeded in 6-well plates and treated with indicated agents for 24h. Senescence was measured by Senescence β-Galactosidase Staining Kit according to the manufacture's instruction (Cell Signaling Technology, Danvers, MA, USA).
# RT4 cells = experiment: MTT cell viability assay; assay type: cell-based; conditions: Homo sapiens, RT-4, RT4 (bladder), 72 h
# Description: as §3
# T24 cells = experiment: MTT cell viability assay; assay type: cell-based; conditions: Homo sapiens, T-24, T24 (bladder), 72 h
# Description: as §3
# A549 cells = experiment: MTT cell viability assay; assay type: cell-based; conditions: Homo sapiens, A549 (lung), 72 h
# Description: as §3
# KMS-11 cells = experiment: MTT cell viability assay; assay type: cell-based; conditions: Homo sapiens, KMS-11 (myeloma), 72 h
# Description: as §3
# FUDDLS cells = experiment: MTT cell viability assay; assay type: cell-based; conditions: Homo sapiens, FUDDLS (sarcoma), 72 h
# Description: as §3
# MCF-7 cells = experiment: MTT cell viability assay; assay type: cell-based; conditions: Homo sapiens, MCF7, MCF-7 (breast), 72 h
# Description: as §3
# HepG2 cells = experiment: MTT cell viability assay; assay type: cell-based; conditions: Homo sapiens, HepG2 (liver), 72 h
# Description: as §3
# RPMI-8226 cells = experiment: MTT cell viability assay; assay type: cell-based; conditions: Homo sapiens, RPMI-8226 (myeloma), 72 h
# Description: as §3
smiles,measurement,setting,value
"CCN1CCN(c2ccc(Nc3cc(N(C)C(=O)Nc4c(Cl)c(OC)cc(OC)c4Cl)ncn3)cc2)CC1 [BGJ-398, 3-(2,6-dichloro-3,5-dimethoxy-phenyl)-1-{6-[4-(4-ethyl-piperazin-1-yl)-phenylamino]-pyrimidin-4-yl}-1-methyl-urea]",G0/G1 cell cycle arrest,RT-112 cells [1],also observed
same,accumulation of the sub-G1 phase (apoptotic cell death),RT-112 cells [1],induced pronounced apoptosis
same,IC50,HUVEC,50 nM
CCN1CCN(c2ccc(Nc3cc(N(C)C(=O)Nc4c(Cl)c(OC)c(Cl)c(OC)c4Cl)ncn3)cc2)CC1 [MPT0L090],Viability (% of control cells) PLC5/PRF/5 (5 μM),PLC/PRF/5 cells,72.6 % of control cells
same,Viability (% of control cells) Hep3B (5 μM),Hep3B cells,47.1 % of control cells
same,Viability (% of control cells) RT-112 (5 μM),RT-112 cells [2],52.6 % of control cells
same,Viability (% of control cells) RT-112 (10 μM),RT-112 cells [2],12.7 % of control cells
same,Viability (% of control cells) SNU-16 (5 μM),SNU-16 cells,27.5 % of control cells
CCN1CCN(c2ccc(Nc3ncnc(N(C)C(=O)Nc4c(Cl)c(OC)c(Cl)c(OC)c4Cl)n3)cc2)CC1 [MPT0L145],conversion of LC3B-I to LC3B-II,[3],induced the conversion of LC3B-I to LC3B-II in a time- and concentration-dependent manner
same,tumor growth inhibition (% TGI),RT-112 tumor xenografts; 5 mg/kg,61.4%
same,tumor growth inhibition (% TGI),RT-112 tumor xenografts; 10 mg/kg,74.6%
same,safety from assessment of body weight loss after treatment,RT-112 tumor xenografts; compared with cisplatin,better safety
same,IC50,"PLC/PRF/5 cells; Homo sapiens, PLC/PRF/5 (liver)",1480 ± 300 nM
same,Viability (% of control cells) PLC5/PRF/5 (5 μM),PLC/PRF/5 cells,20.6 % of control cells
same,Viability (% of control cells) Hep3B (5 μM),Hep3B cells,66.2 % of control cells
same,IC50,MDA-MB-231 cells,6040 ± 260 nM
same,Kd,Erbb2,10000 nM
same,Kd,PDGFRB,680 nM
same,Kd,FLT3,1300 nM
same,Kd,FGFR4,7500 nM
same,Kd,CSF1R,340 nM
same,Kd,TYK2,660 nM
same,Kd,FGFR3,270 nM
same,Kd,FGFR2,670 nM
same,Kd,FGFR1,130 nM
same,Kd,VEGFR2,3100 nM
same,IC50,"RT-112 cells [2]; Homo sapiens, RT-112 (bladder)",1630 ± 10 nM
same,Viability (% of control cells) RT-112 (5 μM),RT-112 cells [2],33.4 % of control cells
same,Viability (% of control cells) RT-112 (10 μM),RT-112 cells [2],8.5 % of control cells
same,IC50,HCT-116 cells,6120 ± 10 nM
same,IC50,"[4]; mean over FGFR-dependent cell lines, read-out: mean IC50 in FGFR-dependent cells",1830 nM
same,IC50,"[4]; mean over FGFR-independent cell lines, read-out: mean IC50 in FGFR-independent cells",6740 nM
same,IC50,"SNU-16 cells; Homo sapiens, SNU-16 (gastric)",650 ± 70 nM
same,Viability (% of control cells) SNU-16 (5 μM),SNU-16 cells,36.9 % of control cells
same,auto-phosphorylation of FGFR1 and FGFR3 and docking protein FRS2,[5]; 1 h,exerted inhibitory activity
same,phosphorylation of ERK and AKT,[5]; 8 h,fully repressed
same,senescence (β-galactosidase activity),RT-112 cells [6],no appreciable senescence
same,IC50,RT4 cells,4000 ± 580 nM
same,G0/G1 cell cycle arrest,RT-112 cells [1],induced G0/G1 cell cycle arrest to a dramatic extent
same,accumulation of the sub-G1 phase (apoptotic cell death),RT-112 cells [1],did not promote accumulation of the sub-G1 phase
same,IC50,T24 cells,6000 ± 500 nM
same,IC50,A549 cells,5970 ± 100 nM
same,IC50,KMS-11 cells,2050 ± 110 nM
same,IC50,FUDDLS cells,4740 ± 490 nM
same,IC50,MCF-7 cells,5980 ± 680 nM
same,IC50,HepG2 cells,1180 ± 160 nM
same,IC50,RPMI-8226 cells,8510 ± 1770 nM
COc1c(Cl)c(NC(=O)N(C)c2cc(-c3cccnc3)ncn2)c(Cl)c(OC)c1Cl [MPT0L147],Viability (% of control cells) RT-112 (10 μM),RT-112 cells [2],85.0 % of control cells
COc1c(Cl)c(NC(=O)N(C)c2cc(-c3cccc(C#N)c3)ncn2)c(Cl)c(OC)c1Cl [MPT0L150],Viability (% of control cells) RT-112 (10 μM),RT-112 cells [2],75.0 % of control cells
COc1c(Cl)c(NC(=O)N(C)c2cc(-c3cccc([N+](=O)[O-])c3)ncn2)c(Cl)c(OC)c1Cl [MPT0L151],Viability (% of control cells) RT-112 (10 μM),RT-112 cells [2],63.8 % of control cells
COc1c(Cl)c(NC(=O)N(C)c2cc(-c3ccc(C#N)cc3)ncn2)c(Cl)c(OC)c1Cl [MPT0L152],Viability (% of control cells) RT-112 (10 μM),RT-112 cells [2],55.3 % of control cells
